Article PMC9268102, “Design, Synthesis and Biological Evaluation of 1,3,5-Triazine Derivatives Targeting hA1 and hA3 Adenosine Receptor” (Molecules, 2022)
Several values for one entry are separate records, joined by “and”; a condition that tells them apart may be missing. Identical values can stand only once.

What was measured:
hA3 AR = target: T1, hA3 AR (Homo sapiens, UniProt P0DMS8); experiment: Radioligand competition binding assay at hA3 AR; parameters: expressed in transfected cells; host or cells: Hela-A3 cell line; details: for Percentage Inhibition (%) at 10 μM, hA3 AR / inhibition at 10 µM: 10 μM compound; for Percentage Inhibition (%) at 10 μM, hA3 AR / inhibition at 10 µM / Ki: [3H]NECA; for inhibition at 10 µM: read-out: Percentage Inhibition (%) at 10 μM, hA3 AR
T1 sequence (P0DMS8 1-318): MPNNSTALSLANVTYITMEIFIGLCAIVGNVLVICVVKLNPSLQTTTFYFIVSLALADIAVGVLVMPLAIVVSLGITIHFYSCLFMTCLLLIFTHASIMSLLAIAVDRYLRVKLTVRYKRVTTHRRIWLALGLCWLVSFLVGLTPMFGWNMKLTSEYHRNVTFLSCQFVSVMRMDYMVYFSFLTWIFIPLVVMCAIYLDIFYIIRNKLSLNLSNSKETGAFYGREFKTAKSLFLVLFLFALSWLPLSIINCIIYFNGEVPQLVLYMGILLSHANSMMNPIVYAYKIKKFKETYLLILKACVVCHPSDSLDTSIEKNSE
Method: (§1) All the synthesized compounds were screened with radioligand binding assays at hARs. First, the percentage of inhibition was measured by treatment of each hAR subtype with 10 μM of each compound (Table 1).
(§2) hA1, hA2A, and hA3 AR competition binding experiments were carried out in a multiscreen GF/C 96-well plate (Millipore, Madrid, Spain) pretreated with binding buffer (Hepes 20 mM, NaCl 100 mM, MgCl2 10 mM, 2 U/mL adenosine deaminase, pH = 7.4 for hA1 AR; Tris-HCl 50 mM, EDTA 1 mM, MgCl2 10 mM, 2 U/mL adenosine deaminase, pH = 7.4 for hA2A AR; and Tris-HCl 50 mM, EDTA 1 mM, MgCl2 5 mM, 2 U/mL adenosine deaminase, pH = 7.4 for hA3 AR, respectively). In each well was incubated 5 µg of membranes from Euroscreen CHO-A1 cell line, 5µg of membranes from Hela-A2A cell line, or 30µg of membranes from Hela-A3 cell line and prepared in laboratory: 1 nM [^3H]-DPCPX (140 Ci/mmol, 1 mCi/Ml, Perkin Elmer NET974001MC) for hA1 AR; 1 nM [^3H]-ZM241385 (50 Ci/mmol, 1 mCi/mL, ARC-ITISA 0884) for hA2A AR; and 10 nM [^3H]-NECA (29.6 Ci/mmol, 1 mCi/mL, Perkin Elmer NET811250UC) for hA3 AR, respectively; and the compounds studied according to standard protocol. Non-specific binding was determined in the presence of R-PIA 10 µM (Sigma P4532) for hA1 AR; of NECA 50 µM (Sigma E2387) for hA2A AR; and of R-PIA 100 µM (Sigma P4532) for hA3 AR, respectively. The reaction mixture (Vt: 200 µL/well) was incubated at 25 °C for 60 min (hA1 AR), 30min (hA2A AR), or 180min (hA3 AR); whereafter it was filtered and washed four times (hA1 and hA2A AR) or six times (hA3 AR) with 250 μL wash buffer (Hepes 20 mM, NaCl 100 mM, MgCl2 10 mM pH = 7.4, for hA1 AR; Tris-HCl 50 mM, EDTA 1 mM, MgCl2 10 mM, pH = 7.4, for hA2A AR; and Tris-HCl 50mM pH = 7.4, for hA3 AR, respectively) before being measured in a microplate beta scintillation counter (MicrobetaTrilux, PerkinElmer, Madrid, Spain).

hA2A AR = target: T2, hA2A AR (Homo sapiens, UniProt P29274); experiment: Radioligand competition binding assay at hA2A AR; details: 10 μM compound, [3H]ZM241385, Hela cells; for inhibition at 10 µM: read-out: Percentage Inhibition (%) at 10 μM, hA2A AR
T2 construct: expressed in transfected cells; host or cells: Hela-A2A cell line
T2 sequence (P29274 whole entry): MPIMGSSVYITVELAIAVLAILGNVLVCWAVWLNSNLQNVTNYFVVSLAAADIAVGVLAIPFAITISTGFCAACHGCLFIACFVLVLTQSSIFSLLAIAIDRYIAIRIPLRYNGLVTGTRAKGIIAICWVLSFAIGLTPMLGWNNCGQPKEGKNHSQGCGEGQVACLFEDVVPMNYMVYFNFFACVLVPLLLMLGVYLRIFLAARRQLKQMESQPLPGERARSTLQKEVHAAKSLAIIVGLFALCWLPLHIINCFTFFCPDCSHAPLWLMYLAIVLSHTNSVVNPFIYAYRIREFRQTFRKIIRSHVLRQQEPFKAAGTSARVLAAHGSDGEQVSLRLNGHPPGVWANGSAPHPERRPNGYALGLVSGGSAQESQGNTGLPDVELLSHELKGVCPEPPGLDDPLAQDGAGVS
Method: as §1, §2

hA1 AR = target: T3, hA1 AR (Homo sapiens, UniProt P30542); experiment: Radioligand competition binding assay at hA1 AR; details: for Percentage Inhibition (%) at 10 μM, hA1 AR / inhibition at 10 µM: 10 μM compound; for Percentage Inhibition (%) at 10 μM, hA1 AR / inhibition at 10 µM / Ki: [3H]DPCPX, CHO cells; for inhibition at 10 µM: read-out: Percentage Inhibition (%) at 10 μM, hA1 AR; for Selectivity (hA1 AR:hA3 AR): ratio of Ki hA1 AR to Ki hA3 AR
T3 construct: host or cells: CHO-A1 (CHO cells expressing hA1 AR)
T3 sequence (P30542 1-326): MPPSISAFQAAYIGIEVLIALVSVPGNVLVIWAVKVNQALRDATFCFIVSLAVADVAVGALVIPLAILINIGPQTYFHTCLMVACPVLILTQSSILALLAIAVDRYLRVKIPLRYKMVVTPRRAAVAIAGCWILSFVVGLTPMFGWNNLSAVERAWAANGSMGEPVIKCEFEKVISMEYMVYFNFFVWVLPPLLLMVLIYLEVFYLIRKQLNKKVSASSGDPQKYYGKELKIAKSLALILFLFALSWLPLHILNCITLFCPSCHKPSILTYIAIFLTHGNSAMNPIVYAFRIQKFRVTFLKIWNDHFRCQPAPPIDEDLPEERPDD
Method: as §1, §2

hA2B AR = target: T4, hA2B AR (Homo sapiens, UniProt P29275); experiment: Radioligand competition binding assay at hA2B AR; details: 10 μM compound; [3H]DPCPX; HEK-293 cells; read-out: Percentage Inhibition (%) at 10 μM, hA2B AR
T4 construct: host or cells: HEK-A2B (HEK-293T-A2B) cell line
T4 sequence (P29275 1-332): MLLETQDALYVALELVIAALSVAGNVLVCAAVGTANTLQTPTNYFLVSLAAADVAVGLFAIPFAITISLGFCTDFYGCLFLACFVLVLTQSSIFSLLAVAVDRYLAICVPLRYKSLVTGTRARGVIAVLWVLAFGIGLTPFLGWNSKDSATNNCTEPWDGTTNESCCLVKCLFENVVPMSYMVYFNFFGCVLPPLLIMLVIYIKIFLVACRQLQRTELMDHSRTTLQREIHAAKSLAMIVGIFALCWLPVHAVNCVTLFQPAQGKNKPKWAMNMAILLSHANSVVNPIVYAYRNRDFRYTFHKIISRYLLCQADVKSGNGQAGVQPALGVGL
Method: as §1
hA2B AR competition binding experiments were carried out in a multiscreen GF/C 96-well plate. In each well was incubated 25 µg of membranes from Euroscreen HEK-A2B cell line and prepared in laboratory, 25 nM [^3H]-DPCPX (140 Ci/mmol, 1 mCi/mL, Perkin Elmer NET974001MC) and compounds studied according to standard protocol. Non-specific binding was determined in the presence of NECA 1000 µM (Sigma E2397). The reaction mixture (Vt: 250 µL/well) was incubated at 25°C for 30 min, 200 µL was transferred to GF/C 96-well plate (Millipore, Madrid, Spain), and pretreated with binding buffer (Tris-HCl 50 Mm, EDTA 1 mM, MgCl2 5 mM, Bacitracin […], adenosine deaminase 2 U/Ml, pH = 6.5). It was then filtered and washed four times with 250 μL wash buffer (Tris-HCl 50 mM, EDTA 1 mM, MgCl2 5 mM, pH = 6.5), before being measured in a microplate beta scintillation counter (MicrobetaTrilux, PerkinElmer, Madrid, Spain).

[1] = compared with hydroxyl compound 9a

Structure (SMILES)	Percentage Inhibition (%) at 10 μM, hA3 AR (hA3 AR) [%]	inhibition at 10 µM (hA3 AR) [%]	Ki (hA3 AR) [nM]	inhibition at 10 µM (hA2A AR) [%]	Percentage Inhibition (%) at 10 μM, hA1 AR (hA1 AR) [%]	inhibition at 10 µM (hA1 AR) [%]	Ki (hA1 AR) [nM]	Selectivity (hA1 AR:hA3 AR) (hA1 AR)	inhibition at 10 µM (hA2B AR) [%]	Percentage Inhibition (%) at 10 μM, hA2A AR (hA2A AR; 10 µM) [%]	Improvement of binding affinity at hA3 AR (hA3 AR; [1]) [fold]	Improvement of binding affinity at hA1 AR (hA1 AR; [1])
COc1ccc(Nc2nc(N)nc(-c3ccc(F)cc3)n2)cc1F [Compound 11b, N^2-(3-fluoro-4-methoxyphenyl)-6-(4-fluorophenyl)-1,3,5-triazine-2,4-diamine]	95 ± 4	> 90	56.6	49 ± 1	98 ± 1	> 90	98.3	1.7 and 1.74	56 ± 1	–	–	–
COc1cc(Nc2nc(N)nc(-c3ccc(O)cc3)n2)ccc1Cl [Compound 9c, 4-{4-amino-6-[(4-chloro-3-methoxyphenyl)amino]-1,3,5-triazin-2-yl}phenol]	95 ± 1	> 95	661	> 95	99 ± 1	> 95	57.9	0.0875	90 ± 1	94 ± 3	–	–
COc1ccc(-c2nc(N)nc(Nc3ccc(OC)c(F)c3)n2)cc1 [Compound 11a, N^2-(3-fluoro-4-methoxyphenyl)-6-(4-methoxyphenyl)-1,3,5-triazine-2,4-diamine]	97 ± 1	> 90	13.3	83 ± 1	95 ± 1	> 90	78.1	5.87	65 ± 2	–	~5	about 2 fold
